Measured values: ChEMBL document CHEMBL1148500, “Inhibitory activity of cyclohexenyl chalcone derivatives and flavonoids of fingerroot, Boesenbergia rotunda (L.), towards dengue-2 virus NS3 protease” (Bioorg Med Chem Lett, 2006)
pKi: −log10 of the molar value.

How the values were obtained:
[1] = biological target: Genome polyprotein (dengue virus type 2) (UniProt P29990); test: Inhibition of dengue2 virus NS2B/NS3 protease activity for Boc-Gly-Arg-Arg-MCA cleavage at 400 ppm
[2] = biological target: Genome polyprotein (dengue virus type 2) (UniProt P29990); test: Inhibition of dengue2 virus NS2B/NS3 protease activity for Boc-Gly-Arg-Arg-MCA cleavage at 240 ppm
[3] = biological target: Genome polyprotein (dengue virus type 2) (UniProt P29990); test: Inhibition of dengue2 virus NS2B/NS3 protease activity for Boc-Gly-Arg-Arg-MCA cleavage at 120 ppm
[4] = biological target: Genome polyprotein (dengue virus type 2) (UniProt P29990); test: Inhibition of dengue2 virus NS2B/NS3 protease activity for Boc-Gly-Arg-Arg-MCA cleavage at 160 ppm
[5] = biological target: Genome polyprotein (dengue virus type 2) (UniProt P29990); test: Inhibition of dengue2 virus NS2B/NS3 protease activity for Boc-Gly-Arg-Arg-MCA cleavage at 40 ppm
[6] = biological target: Genome polyprotein (dengue virus type 2) (UniProt P29990); test: Inhibition of dengue2 virus NS2B/NS3 protease activity for Boc-Gly-Arg-Arg-MCA cleavage at 80 ppm
[7] = biological target: Genome polyprotein (dengue virus type 2) (UniProt P29990); test: Inhibition of dengue2 virus NS2B/NS3 protease activity for Ac-Thr-Arg-Arg-MCA cleavage at 400 ppm
Genome polyprotein = Genome polyprotein (dengue virus type 2, UniProt P29990); test: Inhibition of dengue2 virus NS3 protease
[8] = biological target: Genome polyprotein (dengue virus type 2) (UniProt P29990); test: Inhibition of dengue2 virus NS2B/NS3 protease activity for Ac-Thr-Arg-Arg-MCA cleavage at 120 ppm
[9] = biological target: Genome polyprotein (dengue virus type 2) (UniProt P29990); test: Inhibition of dengue2 virus NS2B/NS3 protease activity for Ac-Thr-Arg-Arg-MCA cleavage at 240 ppm

SMILES	inhibition [1] [%]	inhibition [2] [%]	inhibition [3] [%]	inhibition [4] [%]	inhibition [5] [%]	inhibition [6] [%]	inhibition [7] [%]	pKi (Genome polyprotein)	inhibition [8] [%]	inhibition [9] [%]
O=C1C[C@@H](c2ccccc2)Oc2cc(O)cc(O)c21	56.1	47.3	30.1	–	–	–	–	–	–	–
CC(C)=CC[C@@H]1C(C)=CC[C@@H](c2ccccc2)[C@@H]1C(=O)c1c(O)cc(O)cc1O [4-HYDROXYPANDURATIN A]	99.8	97.3	87.6	96	52	78.1	99.2	4.68	90.4	96.1
COc1cc(O)cc(O)c1C(=O)/C=C/c1ccccc1 [CARDAMOMIN]	71.3	50.1	39.4	–	–	–	–	3.42	–	–
COc1cc(O)c(C(=O)[C@@H]2[C@H](CC=C(C)C)C(C)=CC[C@H]2c2ccccc2)c(O)c1 [PANDURATIN A]	99.8	92.2	87.7	93.7	27.1	66.7	90.4	4.60	47.5	59.6
COc1cc(O)c2c(c1)O[C@H](c1ccccc1)CC2=O [PINOSTROBIN]	–	–	–	–	–	–	88.7	3.46	76.7	80.7
